Data reported in PubChem BioAssay AID2060501 (Molecular Pharmacology Branch, DTP, NCI, 2025).

Test system: 282377-053-R-J1-PDC complex spheroids, viability
Experiment: Anticancer human tumor 282377-053-R-J1-PDC patient-derived colon adenocarcinoma cell line growth inhibition [GQUAD]
Settings: for IC50: curve of first compound; for viability, T/C: stronger effect = lower value
Method in brief: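 Viability of tumor cells grown as complex spheroids with endothelial and stromal cells, exposed to drug combinations. Top concentration at or near clinical Cmax (else 10 microM), diluted in half-log increments.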

[1] = second compound 0.0316 µM, first compound 0.0316 µM
[2] = second compound 0.0316 µM, first compound 0.1 µM
[3] = second compound 0.0316 µM, first compound 0.316 µM
[4] = second compound 0.0316 µM, first compound 1 µM
[5] = second compound 0.0316 µM, first compound 3.16 µM
[6] = second compound 0.0316 µM, first compound 10 µM
[7] = second compound 0.1 µM, first compound 0.0316 µM
[8] = second compound 0.1 µM, first compound 0.1 µM
[9] = second compound 0.1 µM, first compound 0.316 µM
[10] = second compound 0.1 µM, first compound 1 µM
[11] = second compound 0.1 µM, first compound 3.16 µM
[12] = second compound 0.1 µM, first compound 10 µM
[13] = second compound 0.316 µM, first compound 0.0316 µM
[14] = second compound 0.316 µM, first compound 0.1 µM
[15] = second compound 0.316 µM, first compound 0.316 µM
[16] = second compound 0.316 µM, first compound 1 µM
[17] = second compound 0.316 µM, first compound 3.16 µM
[18] = second compound 0.316 µM, first compound 10 µM
[19] = second compound 1 µM, first compound 0.0316 µM
[20] = second compound 1 µM, first compound 0.1 µM
[21] = second compound 1 µM, first compound 0.316 µM
[22] = second compound 1 µM, first compound 1 µM
[23] = second compound 1 µM, first compound 3.16 µM
[24] = second compound 1 µM, first compound 10 µM
[25] = second compound 3.16 µM, first compound 0.0316 µM
[26] = second compound 3.16 µM, first compound 0.1 µM
[27] = second compound 3.16 µM, first compound 0.316 µM
[28] = second compound 3.16 µM, first compound 1 µM
[29] = second compound 3.16 µM, first compound 3.16 µM
[30] = second compound 3.16 µM, first compound 10 µM
[31] = second compound 10 µM, first compound 0.0316 µM
[32] = second compound 10 µM, first compound 0.1 µM
[33] = second compound 10 µM, first compound 0.316 µM
[34] = second compound 10 µM, first compound 1 µM
[35] = second compound 10 µM, first compound 3.16 µM
[36] = second compound 10 µM, first compound 10 µM
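Further: spheroids exposed to compounds for 7 days before readout.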
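Wherever viability, T/C is given: percent of vehicle DMSO control viability with 100% = untreated-like growth.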

## CC(C)(O)C1CCC(Nc2ccc3ncc(-c4cccc(C(F)(F)F)c4)n3n2)CC1 (centres undefined) + Cc1cnc(CNC(=O)c2c(=O)c3ccc(N4CCCN(C)CC4)nc3n3c2sc2ccccc23)cn1
Second compound 0.0316 µM
  IC50: 1680 nM
Second compound 0.1 µM
  IC50: 910 nM
Second compound 0.316 µM
  IC50: 1330 nM
Second compound 1 µM
  IC50: 361 nM
Second compound 3.16 µM
  IC50: < 31.6 nM
Second compound 10 µM
  IC50: < 31.6 nM
[1]
  viability, T/C: 96.9%
[2]
  viability, T/C: 83.3%
[3]
  viability, T/C: 93.2%
[4]
  viability, T/C: 78.4%
[5]
  viability, T/C: 12%
[6]
  viability, T/C: 18.7%
[7]
  viability, T/C: 113%
[8]
  viability, T/C: 79.1%
[9]
  viability, T/C: 68.8%
[10]
  viability, T/C: 62.5%
[11]
  viability, T/C: 16%
[12]
  viability, T/C: 20.9%
[13]
  viability, T/C: 77.9%
[14]
  viability, T/C: 82.2%
[15]
  viability, T/C: 77.9%
[16]
  viability, T/C: 57.9%
[17]
  viability, T/C: 22.4%
[18]
  viability, T/C: 29.7%
[19]
  viability, T/C: 62.1%
[20]
  viability, T/C: 45.2%
[21]
  viability, T/C: 46.5%
[22]
  viability, T/C: 40.5%
[23]
  viability, T/C: 7.32%
[24]
  viability, T/C: 18.9%
[25]
  viability, T/C: 45%
[26]
  viability, T/C: 45%
[27]
  viability, T/C: 42%
[28]
  viability, T/C: 34.3%
[29]
  viability, T/C: 0.13%
[30]
  viability, T/C: 0.15%
[31]
  viability, T/C: 34.2%
[32]
  viability, T/C: 21.1%
[33]
  viability, T/C: 12.3%
[34]
  viability, T/C: 0.24%
[35]
  viability, T/C: 0.89%
[36]
  viability, T/C: 0.2%

## CC(C)n1c(=O)n(C)c2cnc3cc(F)c(-c4ccc(OCCCN5CCCCC5)nc4)cc3c21 + Cc1cnc(CNC(=O)c2c(=O)c3ccc(N4CCCN(C)CC4)nc3n3c2sc2ccccc23)cn1
Second compound 0.0316 µM
  IC50: > 10000 nM
Second compound 0.1 µM
  IC50: > 10000 nM
Second compound 0.316 µM
  IC50: > 10000 nM
Second compound 1 µM
  IC50: < 31.6 nM
Second compound 3.16 µM
  IC50: < 31.6 nM
Second compound 10 µM
  IC50: < 31.6 nM
[1]
  viability, T/C: 101%
[2]
  viability, T/C: 76.5%
[3]
  viability, T/C: 102%
[4]
  viability, T/C: 76.5%
[5]
  viability, T/C: 94%
[6]
  viability, T/C: 86.5%
[7]
  viability, T/C: 84.7%
[8]
  viability, T/C: 80.2%
[9]
  viability, T/C: 81.3%
[10]
  viability, T/C: 90.2%
[11]
  viability, T/C: 83.7%
[12]
  viability, T/C: 72.6%
[13]
  viability, T/C: 69.2%
[14]
  viability, T/C: 61.9%
[15]
  viability, T/C: 70.9%
[16]
  viability, T/C: 76.2%
[17]
  viability, T/C: 78.5%
[18]
  viability, T/C: 64.2%
[19]
  viability, T/C: 47.4%
[20]
  viability, T/C: 48.3%
[21]
  viability, T/C: 49.9%
[22]
  viability, T/C: 46.6%
[23]
  viability, T/C: 56.8%
[24]
  viability, T/C: 67.7%
[25]
  viability, T/C: 48.9%
[26]
  viability, T/C: 45.8%
[27]
  viability, T/C: 51.6%
[28]
  viability, T/C: 43.7%
[29]
  viability, T/C: 53.5%
[30]
  viability, T/C: 45.9%
[31]
  viability, T/C: 44.6%
[32]
  viability, T/C: 33.5%
[33]
  viability, T/C: 39.9%
[34]
  viability, T/C: 45%
[35]
  viability, T/C: 40.6%
[36]
  viability, T/C: 23.5%
